Measured values reported in BigSolDB 2.1.

O=[N+]([O-])N(CCO)CCO.O=[N+]([O-])O.O=[N+]([O-])O
solubility (mole fraction)
Conditions	in 1,2-dichloroethane	in 1,4-dioxane	in DMSO	in acetone	in acetonitrile	in dichloromethane	in ethanol	in ethyl acetate	in methanol	in toluene
283.15 K	0.388	0.191	0.0407	0.234	0.182	0.0359	0.00314	0.131	0.00238	0.0112
288.15 K	0.441	0.245	0.0506	0.26	0.258	0.0615	0.00518	0.17	0.00469	0.0143
293.15 K	0.524	0.318	0.0633	0.321	0.314	0.109	0.00751	0.209	0.0076	0.0177
298.15 K	0.587	0.371	0.0785	0.384	0.36	0.205	0.00986	0.285	0.0106	0.0252
303.15 K	0.641	0.425	0.107	0.439	0.456	0.367	0.0118	0.31	0.0126	0.0276
308.15 K	0.704	0.488	0.132	0.536	0.519	0.448	0.0131	0.334	0.0166	0.032
313.15 K	0.787	0.562	0.163	0.645	0.558	0.515	0.0139	0.362	0.0207	0.0374
